Source: US20080207621A1, “SOLUBLE EPOXIDE HYDROLASE INHIBITORS” (Arete Therapeutics, Inc., priority 2006, published 2008)

Experiments:
[1] = test system: soluble epoxide hydrolase (sEH); test: Fluorescent assay for mouse and human soluble epoxide hydrolase (CMNPC substrate); assay type: biochemical; conditions: substrate CMNPC 5 μM, 30° C.
Source text: Fluorescent Assay for Mouse and Human Soluble Epoxide Hydrolase Recombinant mouse sEH (MsEH) and human sEH (HsEH) were produced in a baculovirus expression system as previously reported. Grant et al., J. Biol. Chem., 268:17628-17633 (1993); Beetham et al., Arch. Biochem. Biophys., 305:197-201 (1993). The expressed proteins were purified from cell lysate by affinity chromatography. Wixtrom et al., Anal. Biochem., 169:71-80 (1988). Protein concentration was quantified using the Pierce BCA assay using bovine serum albumin as the calibrating standard. The preparations were at least 97% pure as judged by SDS-PAGE and scanning densitometry. They contained no detectable esterase or glutathione transferase activity which can interfere with the assay. The assay was also evaluated with similar results in crude cell lysates or homogenate of tissues. The IC50s for each inhibitor were determined according to the following procedure: […] Jones P. D. et. al.; Analytical Biochemistry 2005; 343: pp. 66-75) Bis/Tris HCl 25 mM pH 7.0 containing 0.1 mg/mL of BSA (buffer […] at 0.25 mM in DMSO. Mother solution of enzyme in buffer A (Mouse sEH at 6 μg/mL and Human sEH at 5 μg/mL). Inhibitor dissolved in DMSO at the appropriate concentration. In a black 96 well plate, fill all the wells with 150 μL of buffer A. Add 2 μL of DMSO in well A2 and A3, and then add 2 μL of inhibitor solution in A1 and A4 through A12. Add 150 μL of buffer A in row A, then mix several time and transfer 150 μL to row B. Repeat this operation up to row H. The 150 μL removed from row H is discarded. Add 20 μL of buffer A in column 1 and 2, then add 20 μL of enzyme solution to column 3 to 12. Incubate the plate for 5 minutes in the plate reader at 30° C. During incubation prepare the working solution of substrate by mixing 3.68 mL of buffer A (4×0.920 mL) with 266 μL (2×133 μL) of substrate solution). At t=0, add 30 μL of working substrate solution with multi-channel pipette labeled “Briggs 303” and start the reading ([S]final: 5 μM). Read with ex: 330 nm (20 nm) and em: 465 nm (20 nm) every 30 second for 10 minutes. The velocities are used to analyze and calculate the IC50s.

% Inhibition ([1]; Conc. 50 nM) [%] | SMILES | further results
91 | O=C(Nc1ccc(C(F)(F)F)cc1)Nc1ccc(S(=O)(=O)NCCN2CCOCC2)cc1 [Compound 7, N-(2-Morpholin-4-yl-ethyl)-4-[3-(4-trifluoromethyl-phenyl)-ureido]-benzenesulfonamide] | –
80 | O=C(O)CCCNS(=O)(=O)c1ccc(NC(=O)Nc2ccc(C(F)(F)F)cc2)cc1 [Compound 23, 4-{4-[3-(4-Trifluoromethyl-phenyl)-ureido]-benzenesulfonylamino}-butyric acid] | melting point: 172 to 175 °C
95 | O=C(Nc1ccc(C(F)(F)F)cc1)Nc1ccc(S(=O)(=O)N2CCOCC2)cc1 [Compound 27, 1-[4-(Morpholine-4-sulfonyl)-phenyl]-3-(4-trifluoromethyl-phenyl)-urea] | –
85 | CNS(=O)(=O)c1cccc(NC(=O)Nc2ccc(C(F)(F)F)cc2)c1 [Compound 12, N-methyl-3-[3-(4-trifluoromethylphenyl)ureido]benzenesulfonamide] | melting point: 238 to 240 °C
93 | O=C(Nc1ccc(C(F)(F)F)cc1)Nc1cccc(S(=O)(=O)N2CCOCC2)c1 [Compound 28, 1-[3-(Morpholine-4-sulfonyl)-phenyl]-3-(4-trifluoromethyl-phenyl)-urea] | –
– | CC(=O)NS(=O)(=O)c1cccc(NC(=O)Nc2ccc(C(F)(F)F)cc2)c1 [Compound 20, N-(3-(3-(4-(trifluoromethyl)phenyl)ureido)phenylsulfonyl)aceta-mide] | melting point: 115 to 121 °C; % Inhibition ([1]; Conc. 5000 nM): 85%
– | NS(=O)(=O)c1cccc(NC(=O)NC23CC4CC(CC(C4)C2)C3)c1 [Compound 2, 3-(3-Adamantan-1-yl-ureido)-benzenesulfonamide] | % Inhibition ([1]; Conc. 500 nM): 94%
92 | CC(C)N1CCN(S(=O)(=O)c2cccc(NC(=O)Nc3ccc(C(F)(F)F)cc3)c2)CC1 [Compound 16, 1-[3-(4-Isopropyl-piperazine-1-sulfonyl)-phenyl]-3-(4-trifluoromethyl-phenyl)-urea] | –
99 | O=C(Nc1ccc(C(F)(F)F)cc1)Nc1cccc(S(=O)(=O)Nc2ccc(Cl)cc2)c1 [Compound 26, N-(4-Chloro-phenyl)-3-[3-(4-trifluoromethyl-phenyl)-ureido]-benzenesulfonamide] | melting point: 196 to 198 °C
90 | CC(C)N1CCN(S(=O)(=O)c2ccc(NC(=O)Nc3ccc(C(F)(F)F)cc3)cc2)CC1 [Compound 15, 1-[4-(4-Isopropyl-piperazine-1-sulfonyl)-phenyl]-3-(4-trifluoromethyl-phenyl)-urea] | –
99 | O=C(Nc1ccc(C(F)(F)F)cc1)Nc1ccc(S(=O)(=O)Nc2ccc(Cl)cc2)cc1 [Compound 25, N-(4-Chloro-phenyl)-4-[3-(4-trifluoromethyl-phenyl)-ureido]-benzenesulfonamide] | –
– | NS(=O)(=O)c1ccc(NC(=O)NC23CC4CC(CC(C4)C2)C3)cc1 [Compound 1, 4-(3-Adamantan-1-yl-ureido)-benzenesulfonamide] | % Inhibition ([1]; Conc. 500 nM): 92%
94 | O=C(Nc1ccc(C(F)(F)F)cc1)Nc1cccc(S(=O)(=O)NCCN2CCOCC2)c1 [Compound 8, N-(2-Morpholin-4-yl-ethyl)-3-[3-(4-trifluoromethyl-phenyl)-ureido]-benzenesulfonamide] | –
75 | NS(=O)(=O)c1cccc(NC(=O)Nc2ccc(C(F)(F)F)cc2)c1 [Compound 4, 3-[3-(4-Trifluoromethyl-phenyl)-ureido]-benzenesulfonamide] | –
